{"source": "patent US20150174144A1", "about": "“TETRACYCLINE COMPOUNDS FOR TREATING NEURODEGENERATIVE DISORDERS” (PARATEK PHARMACEUTICALS, INC., priority 2012, published 2015)", "key": {"MOG peptide-induced EAE": {"tested_on": "MOG peptide-induced EAE", "assay": "MOG peptide-induced EAE in mice", "assay_type": "in vivo, C57BL/6 mouse", "conditions": "mouse, i.p. daily from day 10", "from_the_text": "The inhibitory activity of Compound 1 was characterized in both mouse and rat models of EAE. Mice were immunized s.c. with myelin oligodendrocyte glycoprotein (MOG) peptide 35-55 in CFA and later injected i.v. with Pertussis toxin. Mice were randomized at day 10 and given compound i.p. Compounds were subsequently administered daily and the animals assessed for clinical score. Mice were scored as follows: 0=no disease; 1=limp tail; 2=paralysis of one or both hind limbs; 4=paralysis of both hind- and forelimbs. […] Rats were dosed daily i.p. with compound starting day 9. Rats were scored daily and cumulative scores were determined by adding the average daily scores over the experimental period. […] The average daily scores+/−SEM and the cumulative average scores are shown. Cumulative average scores were determined by adding the average daily scores over the experimental period."}, "[1]": {"tested_on": "Fmr1 KO mice and wild-type littermates", "assay": "Open Field test, mouse model of Fragile X Syndrome", "assay_type": "in vivo", "conditions": "10 mg/kg/d i.p. osmotic pump, 1 week", "protocol": "(§1) The purpose of this study was to test Compound 1 for treating Fragile X Syndrome. This study utilized Fmr1 KO mice, an animal model of Fragile X Syndrome.\n(§2) The Fmr1 KO mice (C57BL/6 background) were kindly provided the FRAXA Foundation. Mice were housed in groups of the same genotype in a temperature and humidity controlled room with a 12-h light-dark cycle (lights on 7 am to 7 pm). Testing was conducted during the light phase. Food and water were available ad libitum. Testing was conducted on Fmr1 KO mice and their wild-type littermates. They were housed in commercial plastic cages purchased in the UK. Experiments were conducted in line with the requirements of the UK Animals (Scientific Procedures) Act, 1986.\n(§3) The dosing protocol used is shown below. Mice were dosed at 6-7 weeks by intraperitoneal (i.p.) infusion by osmotic pump (0.5 μl/hour) for 1 week. The solution of 0.9% saline was used as a vehicle, and 10 mice were dosed per each group."}, "[2]": {"tested_on": "ferric iron-induced lipid peroxidation among rat brain tissue", "assay": "Ferric iron-induced lipid peroxidation in rat brain tissue", "assay_type": "biochemical", "protocol": "Tetracycline compounds were tested in an in vitro assay of ferric iron-induced lipid peroxidation among rat brain tissue."}, "bacterial ribosome": {"tested_on": "bacterial ribosome", "assay": "Transcription/translation (TnT) in vitro assay of bacterial protein synthesis", "assay_type": "biochemical", "protocol": "The antibacterial activity of Compound 1 was evaluated against comparator compounds minocycline and doxycycline. Test compounds are considered to have antibacterial activity if they inhibit bacterial growth at test concentrations below 4 μM. […] Further, mechanistic evidence of their antibacterial activity was evaluated using the transcription/translation (TnT) in vitro assay which directly measures the bacterial cellular efficiency of protein synthesis with and without test compounds present."}, "Fmr1 KO2 mice [3]": {"tested_on": "Fmr1 KO2 mice", "assay": "Marble burying test, mouse model of Fragile X Syndrome", "assay_type": "in vivo", "conditions": "10 mg/kg/d", "protocol": "as §1, §2, §3"}, "[4]": {"assay": "14-day acute toxicity and 28-day toxicology study in rats", "assay_type": "in vivo", "protocol": "(§4) The compound was also shown to be negative in a GLP phototoxicity assay. […] Both 14-day acute toxicity and 28-day toxicology study were performed in rats with Compound 1 along with minocycline for comparison. Animals were administered daily oral doses from 15 to 150 mg/kg for up to 4 weeks followed by a recovery period."}, "[5]": {"tested_on": "focal cerebral ischemia (permanent MCA occlusion)", "assay": "Rat stroke model, permanent MCA occlusion", "assay_type": "in vivo, Male Wistar rats"}, "Fmr1 KO2 mice [6]": {"tested_on": "Fmr1 KO2 mice", "assay": "Contextual fear conditioning, mouse model of Fragile X Syndrome", "assay_type": "in vivo", "conditions": "acute stress conditions", "protocol": "as §1, §2, §3\nFreezing as a species-specific response to fear was measured."}, "Metabolism": {"assay": "Metabolism", "assay_type": "in vitro ADME", "conditions": "pre-clinical ADME studies"}, "GLP phototoxicity assay": {"assay": "GLP phototoxicity assay", "protocol": "as §4"}, "CYP450": {"tested_on": "CYP450", "assay": "CYP450 inhibition or induction", "assay_type": "in vitro ADME", "conditions": "pre-clinical ADME studies"}, "hERG/ion channel": {"biological_target": "hERG/ion channel (Homo sapiens, UniProt Q12809)", "sequence (Q12809 whole entry)": "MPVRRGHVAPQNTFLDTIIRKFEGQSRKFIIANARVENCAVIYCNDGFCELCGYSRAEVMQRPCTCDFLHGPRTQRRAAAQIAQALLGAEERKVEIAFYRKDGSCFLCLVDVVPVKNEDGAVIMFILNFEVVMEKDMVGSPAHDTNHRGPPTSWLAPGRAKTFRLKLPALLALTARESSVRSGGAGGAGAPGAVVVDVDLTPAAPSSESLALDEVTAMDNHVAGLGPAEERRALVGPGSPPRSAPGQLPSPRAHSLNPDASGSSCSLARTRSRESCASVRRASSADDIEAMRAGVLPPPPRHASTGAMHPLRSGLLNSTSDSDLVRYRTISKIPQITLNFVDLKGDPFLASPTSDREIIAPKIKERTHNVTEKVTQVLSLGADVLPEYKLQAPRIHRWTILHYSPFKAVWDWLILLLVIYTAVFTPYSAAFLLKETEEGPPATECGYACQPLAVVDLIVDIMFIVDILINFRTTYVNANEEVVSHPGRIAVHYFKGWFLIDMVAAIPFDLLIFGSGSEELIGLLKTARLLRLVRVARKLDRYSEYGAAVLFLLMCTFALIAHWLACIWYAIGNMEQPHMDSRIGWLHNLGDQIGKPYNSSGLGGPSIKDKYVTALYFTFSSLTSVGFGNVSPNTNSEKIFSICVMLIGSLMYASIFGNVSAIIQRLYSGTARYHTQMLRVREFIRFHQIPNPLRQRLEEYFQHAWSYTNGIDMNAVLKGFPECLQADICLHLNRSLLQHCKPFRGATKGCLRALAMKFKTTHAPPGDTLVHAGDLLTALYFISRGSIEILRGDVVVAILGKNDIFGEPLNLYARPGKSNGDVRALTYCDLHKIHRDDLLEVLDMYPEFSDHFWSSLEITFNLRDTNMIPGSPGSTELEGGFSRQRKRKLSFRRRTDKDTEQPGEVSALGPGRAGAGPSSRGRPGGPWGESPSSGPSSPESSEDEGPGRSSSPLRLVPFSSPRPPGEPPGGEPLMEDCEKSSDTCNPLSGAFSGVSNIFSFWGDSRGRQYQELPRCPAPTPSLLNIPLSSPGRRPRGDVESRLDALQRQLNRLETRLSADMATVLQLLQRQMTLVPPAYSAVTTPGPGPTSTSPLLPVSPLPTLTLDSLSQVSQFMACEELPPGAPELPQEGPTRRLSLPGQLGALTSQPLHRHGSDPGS", "assay": "hERG/ion channel assays", "conditions": "pre-clinical safety studies"}, "[7]": {"tested_on": "Fmr1 KO mice and wild-type littermates", "assay": "Elevated Plus Maze test, mouse model of Fragile X Syndrome", "assay_type": "in vivo", "conditions": "10 mg/kg/d i.p. osmotic pump, 1 week", "protocol": "as §1, §2, §3"}}}
{"smiles": "CCc1cc(N(C)C)c2c(c1O)C(=O)C1=C(O)[C@]3(O)C(=O)C(C(N)=O)=C(O)[C@@H](N(C)C)[C@@H]3C[C@@H]1C2", "note": "[Compound 1]", "values": [{"measurement": "Effect on clinical course of EAE (onset, maximum disease severity)", "setting": "MOG peptide-induced EAE", "value": "both delayed the onset and inhibited the maximum disease severity more potently than minocycline"}, {"measurement": "Open Field Test - Trial 2, Mean time", "setting": "[1]; Fmr1 KO mice", "value": 97.100, "unit": "min"}, {"measurement": "Open Field Test - Trial 3, Mean time", "setting": "[1]; Fmr1 KO mice", "value": 72.600, "unit": "min"}, {"measurement": "Open Field Test - Trial 2, Mean time", "setting": "[1]; WT mice", "value": 83.900, "unit": "min"}, {"measurement": "Open Field Test - Trial 3, Mean time", "setting": "[1]; WT mice", "value": 68.300, "unit": "min"}, {"measurement": "Lipid peroxidation (% of Control)", "setting": "[2]; 1.0 μM", "value": "92 % of Control"}, {"measurement": "Lipid peroxidation (% of Control)", "setting": "[2]; 10 μM", "value": "68 % of Control"}, {"measurement": "Lipid peroxidation (% of Control)", "setting": "[2]; 100 μM", "value": "56 % of Control"}, {"measurement": "Protein Synthesis Inhibition (IC50)", "setting": "bacterial ribosome", "value": ">100", "unit": "µg/mL"}, {"measurement": "Marble burying deficit of Fmr1 KO2 mice", "setting": "Fmr1 KO2 mice [3]", "value": "significantly rescued"}, {"measurement": "Thyroid tissue staining", "setting": "[4]; at comparable doses to minocycline", "value": "little or no thyroid tissue staining"}, {"measurement": "Adverse effects", "setting": "[4]; daily oral doses from 15 to 150 mg/kg for up to 4 weeks", "value": "Few adverse effects were observed at any dose"}, {"measurement": "Neurological score", "setting": "[5]; 40 mg/kg i.v. at −90 min, 90 min, 6 hr after MCAO, permanent", "value": "1.1 ± 0.3"}, {"measurement": "Infarct volume (Means ± SD)", "setting": "[5]; 40 mg/kg i.v. at −90 min, 90 min, 6 hr after MCAO, permanent, 24 hr after MCAO", "value": "145.7 ± 33.9", "unit": "mm3"}, {"measurement": "Effect on infarct volume", "setting": "[5]; permanent occlusion, treatment started at 90 min pre-occlusion", "value": "statistically significant reductions in infarct volume"}, {"measurement": "Contextual fear conditioning, learning deficit (freezing)", "setting": "Fmr1 KO2 mice [6]", "value": "failed to fully rescue the learning deficit"}, {"measurement": "Effects in metabolism", "setting": "Metabolism", "value": "no significant effects"}, {"measurement": "GLP phototoxicity assay result", "setting": "GLP phototoxicity assay", "value": "negative"}, {"measurement": "Effects in CYP450 inhibition or induction", "setting": "CYP450", "value": "no significant effects"}, {"measurement": "Effects in hERG/ion channel assays", "setting": "hERG/ion channel", "value": "no significant effects"}, {"measurement": "Elevated Plus Maze: time spent in the close arm, Mean time", "setting": "[7]; Fmr1 KO mice", "value": 259.100, "unit": "min"}, {"measurement": "Elevated Plus Maze: time spent in the close arm, Mean time", "setting": "[7]; WT mice", "value": 227.800, "unit": "min"}]}
